Results from the supplement of paper PMC10307832.

Experiments:
Assay in all cases: relative viability (nuclei count vs DMSO), 5 days (fraction); higher = more cells survive
BAM7 + Dasatinib = compound: CCOC1=CC=CC=C1N=NC2=C(NN(C2=O)C3=NC(=CS3)C4=CC=CC=C4)C [BAM7] + Cc1nc(Nc2ncc(C(=O)Nc3c(C)cccc3Cl)s2)cc(N2CCN(CCO)CC2)n1 [Dasatinib] (partner 0.075 µM)
Summary of the method: (§1)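 For relative viability, nuclei counts in treated wells were divided by those in vehicle wells. Lung cancer cell lines had been pin-tool dosed in 1536-well plates the day after seeding and cultured for 5 days, then fixed and stained in one step (final 0.05% Triton X-100, 1% formaldehyde, 1 ug/ml Hoechst) and imaged at 4×. Doses were one drug alone or a fixed anchor-drug dose plus five library-drug doses (not always all listed) in √10 steps, and values are duplicate-plate medians.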

[1] = compound: CCn1c(-c2nonc2N)nc2c(C#CC(C)(C)O)ncc(OC[C@H]3CCCNC3)c21 + CC(=O)Nc1cccc(-n2c(=O)n(C3CC3)c(=O)c3c(Nc4ccc(I)cc4F)n(C)c(=O)c(C)c32)c1 [Trametinib] (partner 0.02 µM)
Summary of the method: as §1

[2] = compound: CCn1c(-c2nonc2N)nc2c(C#CC(C)(C)O)ncc(OC[C@H]3CCCNC3)c21 + COc1cc2c(Oc3ccc(NC(=O)C4(C(=O)Nc5ccc(F)cc5)CC4)cc3F)ccnc2cc1OCCCN1CCOCC1 [Foretinib] (partner 0.25 µM)
Summary of the method: as §1

[3] = compound: CCn1c(-c2nonc2N)nc2c(C#CC(C)(C)O)ncc(OC[C@H]3CCCNC3)c21 + CS(=O)(=O)N1CCN(Cc2cc3nc(-c4cccc5[nH]ncc45)nc(N4CCOCC4)c3s2)CC1 [Pictilisib] (partner 1 µM)
Summary of the method: as §1

Cell Line | relative viability (BAM7 + Dasatinib; first compound 0.5 µM) | relative viability (BAM7 + Dasatinib; first compound 5 µM) | relative viability (BAM7 + Dasatinib; first compound 15.81 µM) | relative viability (BAM7 + Dasatinib; first compound 50 µM) | relative viability ([1]; first compound 0.01 µM) | relative viability ([1]; first compound 0.03162 µM) | relative viability ([1]; first compound 0.1 µM) | relative viability ([1]; first compound 0.3162 µM) | relative viability ([1]; first compound 1 µM) | relative viability ([2]; first compound 0.01 µM) | relative viability ([2]; first compound 0.03162 µM) | relative viability ([2]; first compound 0.1 µM) | relative viability ([2]; first compound 0.3162 µM) | relative viability ([2]; first compound 1 µM) | relative viability ([3]; first compound 0.01 µM) | relative viability ([3]; first compound 0.03162 µM) | relative viability ([3]; first compound 0.1 µM) | relative viability ([3]; first compound 0.3162 µM) | relative viability ([3]; first compound 1 µM)
HOP-62 | 0.636 | 0.727 | 0.601 | 0.649 | 0.366 | 0.367 | 0.41 | 0.387 | 0.364 | 1.08 | 1.13 | 1.08 | 0.985 | 1.16 | 0.688 | 0.75 | 0.703 | 0.843 | 0.794
CAL-12T | 0.507 | 0.326 | 0.402 | 0.337 | 0.303 | 0.388 | 0.322 | 0.317 | 0.297 | 1.15 | 1.05 | 1.05 | 1.05 | 1.07 | 0.327 | 0.374 | 0.351 | 0.306 | 0.329
NCI-H520 | 0.184 | 0.171 | 0.207 | 0.245 | 0.645 | 0.789 | 0.574 | 0.322 | 0.2 | 0.743 | 0.902 | 0.704 | 0.524 | 0.392 | 0.332 | 0.345 | 0.249 | 0.241 | 0.272
NCI-H1755 | 0.432 | 0.466 | 0.419 | 0.458 | 0.855 | 0.808 | 0.801 | 0.769 | 0.801 | 0.993 | 0.933 | 0.899 | 0.841 | 0.95 | 0.426 | 0.445 | 0.41 | 0.408 | 0.382
NCI-H2023 | 0.519 | 0.465 | 0.393 | 0.481 | 0.639 | 0.55 | 0.422 | 0.432 | 0.288 | 0.775 | 0.887 | 0.801 | 0.781 | 0.755 | 0.214 | 0.269 | 0.207 | 0.196 | 0.236
NCI-H2009 | 0.291 | 0.283 | 0.265 | 0.275 | 0.268 | 0.274 | 0.245 | 0.301 | 0.259 | 1.22 | 1.21 | 1.31 | 1.22 | 1.22 | 0.89 | 0.855 | 0.745 | 0.798 | 0.752
